The nature of data set [1]: Study 2: phase 1 open-label crossover DDI study, plasma PK of oral immunosuppressant/oncology drugs alone vs with i.v. rezafungin. The conditions noted are these: for Magnitude of decrease in Cmax with rezafungin vs drug alone / AUC0–t, geometric mean ratio (drug + rezafungin / drug alone) / AUC0–∞, geometric mean ratio (drug + rezafungin / drug alone) / Cmax, geometric mean ratio (drug + rezafungin / drug alone): mycophenolic acid analyte for mycophenolate mofetil; for AUC0–t, geometric mean ratio (drug + rezafungin / drug alone) / AUC0–∞, geometric mean ratio (drug + rezafungin / drug alone) / Cmax, geometric mean ratio (drug + rezafungin / drug alone): rezafungin 200 mg i.v., geometric LSM ratio x 100, ANOVA. As to the method: (§1) Both were phase 1, single-center, open-label, crossover inpatient studies that were conducted in the United States in healthy adults (study 1, aged 26 to 55 years; study 2, aged 21 to 59 years). The studies were compliant with the International Council for Harmonisation of Technical Requirements for Pharmaceuticals for Human Use E6 guideline for good clinical practice ([54]) and the Declaration of Helsinki. The study protocols were approved by the institutional review board associated with the study site, and all subjects provided written informed consent.
(§2) After screening, subjects were admitted to the CRU on day −17 (prior to the first rezafungin dose) and were discharged on day 22. Rezafungin was dosed via i.v. infusion over 1 h at 400 mg on day 1 and 200 mg on day 8 and day 15. The oral drugs to be tested for interactions were each administered twice on a schedule designed to allow washout between doses: once alone and once while receiving rezafungin (Fig. 4B). The total duration of treatment was approximately 84 days, which included 45 days of screening and 39 days of treatment in the CRU.
(§3) In study 1, predose PK blood samples were collected on each dosing day ≤60 min prior to the administration of the substrate drugs with or without rezafungin. Multiple blood samples were collected relative to each dose, with collection times ranging from 15 min to 168 h postdose, depending on the PK profile of each probe substrate drug (Table S5). For study 2, multiple blood samples were collected, and the timing of collection varied according to the PK profile of each coadministered drug from predose to 96 h postdose (Table S6). PK blood samples were collected for rezafungin at sample times ranging from predose to 168 h postdose.
(§4) For both studies, validated liquid chromatography-tandem mass spectrometry (LC-MS/MS) methods were used for PK assessments to analyze the concentrations of rezafungin and coadministered drugs. All plasma concentrations and actual blood sampling times were subjected to noncompartmental PK analysis. PK parameter calculations were performed using noncompartmental analysis (NCA) (Phoenix WinNonlin version 8.0 or higher). The PK parameters analyzed included Cmax; the time to reach the maximum observed plasma concentration (Tmax); AUC0–t (using the log-linear trapezoidal rule, where t was the last time point with a measurable concentration); AUC0–∞ (calculated as AUC0–t + Clast/λz); the AUC from 0 to 168 h (AUC0–168); the percentage of AUC0–∞ extrapolated (AUC%Extrap); the terminal elimination rate constant, determined by linear regression of the terminal linear segment of the log concentration-versus-time curve (λz); and the elimination half-life (t1/2), calculated as ln(2)/λz.
(§5) The primary analysis of the drug interaction effect on substrate drugs following rezafungin administration was assessed by the ratio of the geometric least-squares (LS) mean of each substrate drug administered with rezafungin to that without rezafungin. […] PK parameters were statistically analyzed using an analysis of variance (ANOVA) model. […] However, noncompliance with these no-effect boundaries was not considered evidence of a significant DDI. Statistical analyses were performed using SAS (version 9.4) and the mixed procedure. Adverse events were descriptively summarized.

The conditions of data set [2]: for AUC0–t, geometric LSM value, + rezafungin / AUC0–∞, geometric LSM value, + rezafungin / Cmax, geometric LSM value, + rezafungin / AUC0–t, geometric LSM value, alone / AUC0–∞, geometric LSM value, alone / Cmax, geometric LSM value, alone: Study 1, healthy subjects, efavirenz 50 mg, plasma, LC-MS/MS, NCA; for AUC0–t, geometric LSM value, + rezafungin / AUC0–∞, geometric LSM value, + rezafungin / Cmax, geometric LSM value, + rezafungin: oral metformin 500 mg, pitavastatin 2 mg (day 10) or caffeine 100 mg, midazolam 2 mg, digoxin 0.25 mg (day 15) with i.v. rezafungin 400 mg; for AUC0–t, geometric LSM value, alone / AUC0–∞, geometric LSM value, alone / Cmax, geometric LSM value, alone: oral repaglinide 1 mg, metformin 500 mg, pitavastatin 2 mg, caffeine 100 mg, midazolam 2 mg or digoxin 0.25 mg without rezafungin; for Change in exposure of the oral probe drug on coadministration of i.v. rezafungin vs dosing alone / Observation, Cmax (change with rezafungin relative to drug alone) / Observation, AUC (change with rezafungin relative to drug alone) / AUC0–t, geometric mean ratio (drug + rezafungin / drug alone) / AUC0–∞, geometric mean ratio (drug + rezafungin / drug alone) / Cmax, geometric mean ratio (drug + rezafungin / drug alone): Study 1; for Change in exposure of the oral probe drug on coadministration of i.v. rezafungin vs dosing alone: 90% CIs of GMRs of Cmax, AUC0–t, AUC0–∞ within 80 to […]; for Observation, Cmax (change with rezafungin relative to drug alone) / Observation, AUC (change with rezafungin relative to drug alone): class symbol; for Observation, AUC (change with rezafungin relative to drug alone): AUC0–t and AUC0–∞ unless otherwise noted; for AUC0–t, geometric mean ratio (drug + rezafungin / drug alone) / AUC0–∞, geometric mean ratio (drug + rezafungin / drug alone) / Cmax, geometric mean ratio (drug + rezafungin / drug alone): rezafungin 400 mg i.v. (day 10 or 15), geometric LSM ratio x 100, ANOVA. As to the method: as §1
After screening, subjects were admitted to the clinical research unit (CRU) prior to the first dose of rezafungin (from day −22) and were discharged from the CRU on day 22. Nine oral substrate drugs were administered as part of a cocktail containing two or more drugs once before and once after receiving rezafungin on a schedule designed to allow the washout of the drugs in the cocktail between doses and limit interactions with other drugs (Fig. 4A). […] A loading dose of rezafungin for injection (600 mg) was administered over 1 h on day 1, followed by two once-weekly 400-mg doses over 1 h on days 10 and 15. Due to a short delay in the availability of the investigation study drug, the second once-weekly dose of rezafungin and the second set of oral substrate drugs were administered on day 10 instead of day 8, although the time between doses remained sufficient for all originally planned PK samplings through 96 h postdose and for the adequate washout of the substrate drugs. The total duration of treatment was up to 89 days, including 45 days of screening and 44 days of treatment in the CRU.
as §3, §4, §5

Data set [3] in a line: Study 2 safety and tolerability (TEAEs). The conditions noted are these: Study 2; one subject each. The method, then:
as §2
In both studies, the safety population included all subjects who received any amount of the study drug. In study 1, the rezafungin safety population included all subjects who received any amount of rezafungin. Safety assessments included vital signs (temperature, heart rate, blood pressure, and respiratory rate), safety laboratory evaluations (hematology assessment, serum chemistry panel, and urinalysis), physical examinations (complete and symptom directed), and EKGs.
Microbiology Spectrum Supplementary materials
Abbreviations: TEAE = treatment-emergent adverse event.
N = number of subjects in the safety population; n = number of subjects in a sample.
Notes: Each TEAE was counted only once for each subject within each System Organ Class and Preferred Term.

The conditions of data set [4]: clinical study, U.S. prescribing information; cited from earlier work.
Setting [5] is: Study 2, from geometric mean ratio.
Setting [6] is: Study 2, healthy subjects, oral cyclosporine 200 mg, ibrutinib 280 mg or mycophenolate mofetil 500 mg (analyte mycophenolic acid) without rezafungin, plasma, LC-MS/MS, NCA.
The mark [7] stands for this setting: Study 2, healthy subjects, oral ibrutinib 280 mg (day 8) or mycophenolate mofetil 500 mg (day 15, cohort 1; analyte mycophenolic acid) with i.v. rezafungin 200 mg, plasma, LC-MS/MS, NCA.
The mark [8] stands for this setting: Study 2, healthy subjects (cohort 2), oral venetoclax 50 mg with i.v. rezafungin 200 mg (day 15), plasma, LC-MS/MS, NCA.
[9] abbreviates: Study 2, healthy subjects (cohort 2), oral venetoclax 50 mg without rezafungin, plasma, LC-MS/MS, NCA.

Read-outs that look alike come from different tables or passages of the source.

Take `COc1c(C)c2c(c(O)c1C/C=C(\C)CCC(=O)O)C(=O)OC2` [Mycophenolic acid]: the “Magnitude of decrease in Cmax with rezafungin vs drug alone” value in data set [1] (setting [5]) came out at 19%.

Turning to `C=CC(=O)N1CCC[C@@H](n2nc(-c3ccc(Oc4ccccc4)cc3)c3c(N)ncnc32)C1` [Ibrutinib], the “Magnitude of decrease in Cmax with rezafungin vs drug alone” value in data set [1] (setting [5]) was roughly 17%.

On to `COc1c(C)c2c(c(O)c1C/C=C(\C)CCC(=O)OCCN1CCOCC1)C(=O)OC2` [Mycophenolate mofetil], for which, in data set [1] (setting [6]), the “AUC0–t, geometric LSM value, alone” value was 25,299.70 ng · h/mL; the “AUC0–∞, geometric LSM value, alone” value was 27,954.20 ng · h/mL; the “Cmax, geometric LSM value, alone” value was 9,541.20 ng/mL. Also, in data set [1] (setting [7]), the “AUC0–t, geometric LSM value, + rezafungin” value is given as 25,054.90 ng · h/mL; the “AUC0–∞, geometric LSM value, + rezafungin” value is 28,257.00 ng · h/mL; the “Cmax, geometric LSM value, + rezafungin” value was 7,740.58 ng/mL. The “Observation, AUC (change with rezafungin relative to drug alone)” value in data set [1] (Study 2, class symbol, AUC0–t and AUC0–∞ unless otherwise noted) is “↔ (no change (the ratio of the PK parameter value varied by up to ~10%, and the 90% CI was within 80 to 125%))”. In addition, in data set [1] (Study 2), the “AUC0–t, geometric mean ratio (drug + rezafungin / drug alone)” value is on record as 99.03%; the “AUC0–∞, geometric mean ratio (drug + rezafungin / drug alone)” value was found to be 101.08%; the “Cmax, geometric mean ratio (drug + rezafungin / drug alone)” value is 81.13%.

Consider `Cc1ncc2n1-c1ccc(Cl)cc1C(c1ccccc1F)=NC2` [Midazolam], for which, in data set [2], the “AUC0–t, geometric LSM value, + rezafungin” value came to 21.62 ng·h/mL; the “AUC0–∞, geometric LSM value, + rezafungin” value amounted to 23.67 ng·h/mL; the “Cmax, geometric LSM value, + rezafungin” value turned out to be 8.70 ng/mL; the “AUC0–t, geometric LSM value, alone” value was determined as 21.39 ng·h/mL. Also, in data set [2], the “AUC0–∞, geometric LSM value, alone” value is 23.25 ng·h/mL; the “Cmax, geometric LSM value, alone” value amounted to 9.00 ng/mL; the “Change in exposure of the oral probe drug on coadministration of i.v. rezafungin vs dosing alone” value (“Change in exposure” below) is “did not result in statistically significant changes”; the “Observation, Cmax (change with rezafungin relative to drug alone)” value is “↔ (no change (the ratio of the PK parameter value varied by up to ~10%, and the 90% CI was within 80 to 125%))”. Also, in data set [2], the “Observation, AUC (change with rezafungin relative to drug alone)” value was “↔ (no change (the ratio of the PK parameter value varied by up to ~10%, and the 90% CI was within 80 to 125%))”; the “AUC0–t, geometric mean ratio (drug + rezafungin / drug alone)” value was determined as 101.06%; the “AUC0–∞, geometric mean ratio (drug + rezafungin / drug alone)” value was determined as 101.78%; the “Cmax, geometric mean ratio (drug + rezafungin / drug alone)” value is 96.73%.

Consider `CC1(C)CCC(CN2CCN(c3ccc(C(=O)NS(=O)(=O)c4ccc(NCC5CCOCC5)c([N+](=O)[O-])c4)c(Oc4cnc5[nH]ccc5c4)c3)CC2)=C(c2ccc(Cl)cc2)C1` [Venetoclax], for which the “severe TEAE deemed by the investigator to be related to the drug” value in data set [3] was “abdominal pain”. In data set [1] (setting [8]), the “AUC0–t, geometric LSM value, + rezafungin” value is 2,693.83 pg · h/mL and the “AUC0–∞, geometric LSM value, + rezafungin” value is 2,781.57 pg · h/mL. In data set [1] (setting [9]), the “AUC0–t, geometric LSM value, alone” value is 3,004.70 pg · h/mL and the “AUC0–∞, geometric LSM value, alone” value was 3,082.58 pg · h/mL. For the same compound, the “Magnitude of decrease in AUC with rezafungin vs drug alone” value in data set [1] (Study 2, AUC0–t and AUC0–∞, from geometric mean ratio) is given as roughly 10%. Further, the “Observation, Cmax (change with rezafungin relative to drug alone)” value in data set [1] (Study 2, class symbol) is “↔ (no change (the ratio of the PK parameter value varied by up to ~10%, and the 90% CI was within 80 to 125%))”. Also, in data set [1] (Study 2), the “AUC0–t, geometric mean ratio (drug + rezafungin / drug alone)” value was 89.65%; the “AUC0–∞, geometric mean ratio (drug + rezafungin / drug alone)” value was determined as 90.24%; the “Cmax, geometric mean ratio (drug + rezafungin / drug alone)” value is recorded as 94.84%.

In the case of `Cn1c(=O)c2c(ncn2C)n(C)c1=O` [Caffeine], in data set [2], the “AUC0–t, geometric LSM value, + rezafungin” value is recorded as 18,475.36 ng · h/mL; the “AUC0–∞, geometric LSM value, + rezafungin” value was 20,853.11 ng · h/mL; the “Cmax, geometric LSM value, + rezafungin” value is 2,232.88 ng/mL; the “AUC0–t, geometric LSM value, alone” value is 17,230.22 ng · h/mL. In addition, in data set [2], the “AUC0–∞, geometric LSM value, alone” value is on record as 18,897.70 ng · h/mL; the “Cmax, geometric LSM value, alone” value is 2,075.44 ng/mL; the “Change in exposure” value is given as “did not result in statistically significant changes”; the “Observation, Cmax (change with rezafungin relative to drug alone)” value was “↔ (no change (the ratio of the PK parameter value varied by up to ~10%, and the 90% CI was within 80 to 125%))”. In data set [2], the “Observation, AUC (change with rezafungin relative to drug alone)” value was “↔ (no change (the ratio of the PK parameter value varied by up to ~10%, and the 90% CI was within 80 to 125%))”; the “AUC0–t, geometric mean ratio (drug + rezafungin / drug alone)” value is reported as 107.23%; the “AUC0–∞, geometric mean ratio (drug + rezafungin / drug alone)” value amounted to 110.35%; the “Cmax, geometric mean ratio (drug + rezafungin / drug alone)” value came to 107.59%.

Regarding `C[C@H]1O[C@@H](O[C@H]2[C@@H](O)C[C@H](O[C@H]3[C@@H](O)C[C@H](O[C@H]4CC[C@@]5(C)[C@H](CC[C@@H]6[C@@H]5C[C@@H](O)[C@]5(C)[C@@H](C7=CC(=O)OC7)CC[C@]65O)C4)O[C@@H]3C)O[C@@H]2C)C[C@H](O)[C@@H]1O` [Digoxin], the “Change in exposure” value in data set [2] is “did not result in statistically significant changes”.

In the case of Caspofungin, in data set [4], the “increase in AUC of caspofungin by cyclosporine” value is “approximately 35%” and the “reduction of trough concentrations of caspofungin by rifampicin” value was 30%.
